pEC50: −log10 of the molar value.
How the values were obtained:
[1] = tested on: primary human fibroblasts derived from IPF patients (LL29 cells); experiment: Inhibition of the fibrotic process: αSMA staining in TGF-β1 treated fibroblasts; format: cell-based; details: Fibroblast; for pEC50: 96 h, LL29 cells, TGF-β1 20 ng/mL, 4 days, % αSMA positive cells; for inhibition at 10 µM: given where EC50 >10 μM, LL29, αSMA, read-out: percent inhibition at 10 μM
How it was run: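 EC50 from triplicate-well dose-response fits of % αSMA-positive cells, normalized to TGF-β1-stimulated DMSO controls, with SYTOX-positive dead cells excluded. LL29 IPF fibroblasts received compound at 10 μM–1.87 nM (0.1% DMSO) plus 20 ng/mL TGF-β1 for 4 days in 1% FBS medium; above 10 μM, % inhibition at 10 μM reported.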

[2] = tested on: primary human mesenchymal stem cells (hMSCs); experiment: Chondrogenesis induction in mesenchymal stem cells (nodule count); format: cell-based; details: 144 h, 6 days; for Emax: relative to TGF-β3 (10 ng/mL) positive control, read-out: Max. Activity as % TGF-β3 activity; for EC50: concentration required to induce 50% levels of chondrogenesis vs TGF-β3, read-out: Conc (nM) of 50% TGF-β3 activity
Method: Representative compounds were screened using primary human mesenchymal stem cells (hMSCs) to determine their ability to induce chondrogenesis (process by which cartilage is developed).
Human Mesenchymal Stem Cell Culture: Primary human mesenchymal stem cells (hMSCs) were purchased from Lonza (Walkersville, Md.) and expanded in Mesenchymal Stem Cell Growth Media (Lonza). Cells between passage 3 and 6 were used for the experiments.
Compound Screening: Each compound was dissolved in DMSO as a 10 mM stock and used to prepare compound source plates. Serial dilution (1:3, 6-point dose-response curves from 2700 nM to 10 nM) and compound transfer was performed using the ECHO 550 (Labcyte, Sunnyvale, Calif.) into 96-well clear bottom assay plates (Greiner Bio-One) with appropriate DMSO backfill for a final DMSO concentration of 0.03%. hMSCs were plated at 20,000 cells/well in 250 μL/well Incomplete Chondrogenic Induction Medium (Lonza; DMEM, dexamethasone, ascorbate, insulin-transferrin-selenium [ITS supplement], gentamycin-amphotericin [GA-1000], sodium pyruvate, proline and L-glutamine). TGF-β3 (10 ng/mL) was used as a positive control for differentiation while negative control wells were treated with 75 nL DMSO for normalization and calculating EC50 values. Cells were incubated at 37° C. and 5% CO2 for 6 days. To image chondrogenic nodules, the cells were fixed using 4% formaldehyde (Electron Microscopy Sciences), and stained with 2 μg/mL Rhodamine B (Sigma-Aldrich) and 20 μM Nile Red (Sigma-Aldrich) [Johnson K., et. al, A Stem Cell-Based Approach to Cartilage Repair, Science, (2012). 336(6082), 717-721]. The nodules imaged (4 images per well at 4× magnification) by excitation at 531 nm and emission at 625 nm and quantified using the CellInsight CX5 (Thermo Scientific). Number of nodules in each well was normalized to the average of 3 DMSO treated wells on the same plate using Excel (Microsoft Inc.). The normalized averages (fold change over DMSO) of 3 replicate wells for each compound concentration were calculated. Due to solubility limitations of some of the compounds, curve fitting was incomplete leading to inaccurate EC50 determinations.
Using TGF-β3 as a positive control, the concentration of representative compounds required to induce 50% levels of chondrogenesis is reported. In addition, the maximum activity of each compound and the respective dose that each compound reached maximum chondrogenesis activity is reported.

Compound	EC50 [2] [nM]	pEC50 [1]	Emax [2] [%]	inhibition at 10 µM [1] [%]
FC1(F)CCN(Cc2cncc(-c3ccc4[nH]nc(-c5cc6c(N7CCCCC7)ccnc6[nH]5)c4n3)c2)C1 [Compound 194, 5-(5-((3,3-Difluoropyrrolidin-1-yl)methyl)pyridin-3-yl)-3-(4-(piperidin-1-yl)-1H-pyrrolo[2,3-b]pyridin-2-yl)-1H-pyrazolo[4,3-b]pyridine]	–	5.59	38	–
Cc1ccncc1-c1ccc2[nH]nc(-c3cc4c(-c5ccncc5)ccnc4[nH]3)c2n1 [Compound 117, 5-(4-Methylpyridin-3-yl)-3-(4-(pyridin-4-yl)-1H-pyrrolo[2,3-b]pyridin-2-yl)-1H-pyrazolo[4,3-b]pyridine]	300	6.22	56	–
c1ncc(-c2ccc3[nH]nc(-c4cc5c(N6CCCCC6)ccnc5[nH]4)c3n2)cn1 [Compound 195, 3-(4-(Piperidin-1-yl)-1H-pyrrolo[2,3-b]pyridin-2-yl)-5-(pyrimidin-5-yl)-1H-pyrazolo[4,3-b]pyridine]	10	5.69	100	–
c1cc(-c2ccnc3[nH]c(-c4n[nH]c5ccc(-c6cncc(OCCN7CCCC7)c6)nc45)cc23)ccn1 [Compound 578, 3-(4-(Pyridin-4-yl)-1H-pyrrolo[2,3-b]pyridin-2-yl)-5-(5-(2-(pyrrolidin-1-yl)ethoxy)pyridin-3-yl)-1H-pyrazolo[4,3-b]pyridine]	–	5.91	40	–
CC(C)Nc1cncc(-c2ccc3[nH]nc(-c4cc5c(-c6cccnc6)ccnc5[nH]4)c3n2)c1 [Compound 96, N-Isopropyl-5-(3-(4-(pyridin-3-yl)-1H-pyrrolo[2,3-b]pyridin-2-yl)-1H-pyrazolo[4,3-b]pyridin-5-yl)pyridin-3-amine]	–	< 5.00	47	0
CN1CCN(c2ccnc3[nH]c(-c4n[nH]c5ccc(-c6cn[nH]c6)nc45)cc23)CC1 [Compound 635, 3-(4-(4-Methylpiperazin-1-yl)-1H-pyrrolo[2,3-b]pyridin-2-yl)-5-(1H-pyrazol-4-yl)-1H-pyrazolo[4,3-b]pyridine]	300	5.82	60	–
CC(C)CC(=O)Nc1cncc(-c2ccc3[nH]nc(-c4cc5c(N6CCN(C)CC6)ccnc5[nH]4)c3n2)c1 [Compound 226, 3-Methyl-N-(5-(3-(4-(4-methylpiperazin-1-yl)-1H-pyrrolo[2,3-b]pyridin-2-yl)-1H-pyrazolo[4,3-b]pyridin-5-yl)pyridin-3-yl)butanamide]	–	5.75	49	–
c1cncc(-c2ccc3[nH]nc(-c4cc5cccnc5[nH]4)c3n2)c1 [Compound 256, 5-(Pyridin-3-yl)-3-(1H-pyrrolo[2,3-b]pyridin-2-yl)-1H-pyrazolo[4,3-b]pyridine]	10	6.51	66	–
CN(C)CCOc1cncc(-c2ccc3[nH]nc(-c4cc5c(-c6cccnc6)ccnc5[nH]4)c3n2)c1 [Compound 563, N,N-Dimethyl-2-((5-(3-(4-(pyridin-3-yl)-1H-pyrrolo[2,3-b]pyridin-2-yl)-1H-pyrazolo[4,3-b]pyridin-5-yl)pyridin-3-yl)oxy)ethan-1-amine]	–	5.52	22	–
CN1CCN(c2ccnc3[nH]c(-c4n[nH]c5ccc(-c6cncc(NC(=O)CC(C)(C)C)c6)nc45)cc23)CC1 [Compound 240, 3,3-Dimethyl-N-(5-(3-(4-(4-methylpiperazin-1-yl)-1H-pyrrolo[2,3-b]pyridin-2-yl)-1H-pyrazolo[4,3-b]pyridin-5-yl)pyridin-3-yl)butanamide]	–	6.17	30	–

Continued, in another order:

EC50 [2] [nM]	Compound	pEC50 [1]	Emax [2] [%]	inhibition at 10 µM [1] [%]
100	c1cc(-c2ccnc3[nH]c(-c4n[nH]c5ccc(-c6cncc(CNCC7CCCC7)c6)nc45)cc23)ccn1 [Compound 137, 1-Cyclopentyl-N-((5-(3-(4-(pyridin-4-yl)-1H-pyrrolo[2,3-b]pyridin-2-yl)-1H-pyrazolo[4,3-b]pyridin-5-yl)pyridin-3-yl)methyl)methanamine]	< 5.00	67	23.8
10	CN1CCN(c2ccnc3[nH]c(-c4n[nH]c5ccc(-c6cncc(NC(=O)c7ccccc7)c6)nc45)cc23)CC1 [Compound 235, N-(5-(3-(4-(4-Methylpiperazin-1-yl)-1H-pyrrolo[2,3-b]pyridin-2-yl)-1H-pyrazolo[4,3-b]pyridin-5-yl)pyridin-3-yl)benzamide]	5.49	62	–
10	CN(C)Cc1cncc(-c2ccc3[nH]nc(-c4cc5c(N6CCCCC6)ccnc5[nH]4)c3n2)c1 [Compound 181, N,N-Dimethyl-1-(5-(3-(4-(piperidin-1-yl)-1H-pyrrolo[2,3-b]pyridin-2-yl)-1H-pyrazolo[4,3-b]pyridin-5-yl)pyridin-3-yl)methanamine]	5.11	82	–
300	c1csc(-c2ccnc3[nH]c(-c4n[nH]c5ccc(-c6cncc(OC7CCNCC7)c6)nc45)cc23)c1 [Compound 704, 5-(5-(Piperidin-4-yloxy)pyridin-3-yl)-3-(4-(thiophen-2-yl)-1H-pyrrolo[2,3-b]pyridin-2-yl)-1H-pyrazolo[4,3-b]pyridine]	5.74	51	–
300	FC1(F)CCN(Cc2cncc(-c3ccc4[nH]nc(-c5cc6c(-c7cccnc7)ccnc6[nH]5)c4n3)c2)C1 [Compound 110, 5-(5-((3,3-Difluoropyrrolidin-1-yl)methyl)pyridin-3-yl)-3-(4-(pyridin-3-yl)-1H-pyrrolo[2,3-b]pyridin-2-yl)-1H-pyrazolo[4,3-b]pyridine]	6.67	80	–
100	c1cncc(-c2ccc3[nH]nc(-c4cc5c(-c6cccnc6)ccnc5[nH]4)c3n2)c1 [Compound 88, 5-(Pyridin-3-yl)-3-(4-(pyridin-3-yl)-1H-pyrrolo[2,3-b]pyridin-2-yl)-1H-pyrazolo[4,3-b]pyridine]	< 5.00	59	25.3
2700	c1cc(-c2ccnc3[nH]c(-c4n[nH]c5ccc(-c6cncc(CN7CCCCC7)c6)nc45)cc23)ccn1 [Compound 127, 5-(5-(Piperidin-1-ylmethyl)pyridin-3-yl)-3-(4-(pyridin-4-yl)-1H-pyrrolo[2,3-b]pyridin-2-yl)-1H-pyrazolo[4,3-b]pyridine]	< 5.00	55	0
900	Fc1cccc(-c2ccnc3[nH]c(-c4n[nH]c5ccc(-c6cncc(CN7CCCCC7)c6)nc45)cc23)c1 [Compound 15, 3-(4-(3-Fluorophenyl)-1H-pyrrolo[2,3-b]pyridin-2-yl)-5-(5-(piperidin-1-ylmethyl)pyridin-3-yl)-1H-pyrazolo[4,3-b]pyridine]	< 5.00	62	10.3
30	CN(C)c1cncc(-c2ccc3[nH]nc(-c4cc5c(-c6cccnc6)ccnc5[nH]4)c3n2)c1 [Compound 91, N,N-Dimethyl-5-(3-(4-(pyridin-3-yl)-1H-pyrrolo[2,3-b]pyridin-2-yl)-1H-pyrazolo[4,3-b]pyridin-5-yl)pyridin-3-amine]	5.66	71	–
900	CN(C)CCNc1cc(F)cc(-c2ccnc3[nH]c(-c4n[nH]c5ccc(-c6cncc(CNCC7CCCC7)c6)nc45)cc23)c1 [Compound 473, N^1-(3-(2-(5-(5-(((Cyclopentylmethyl)amino)methyl)pyridin-3-yl)-1H-pyrazolo[4,3-b]pyridin-3-yl)-1H-pyrrolo[2,3-b]pyridin-4-yl)-5-fluorophenyl)-N^2,N^2-dimethylethane-1,2-diamine]	5.70	111	–
10	O=C(CC1CCNCC1)Nc1cncc(-c2ccc3[nH]nc(-c4cc5c(-c6ccoc6)ccnc5[nH]4)c3n2)c1 [Compound 689, N-(5-(3-(4-(Furan-3-yl)-1H-pyrrolo[2,3-b]pyridin-2-yl)-1H-pyrazolo[4,3-b]pyridin-5-yl)pyridin-3-yl)-2-(piperidin-4-yl)acetamide]	5.66	102	–

Reference: patent US10206909B2, “3-(1H-pyrrolo[2,3-B]pyridin-2-yl)-1H-pyrazolo[4,3-B]pyridines and therapeutic uses thereof” (Samumed, LLC, priority 2015, dated 2019)
